Data from patent publication US20230111310A1, “CARBOXYLIC ACID DERIVATIVE-SUBSTITUTED IMINO ARYL COMPOUND, PREPARATION METHOD THEREFOR, HERBICIDAL COMPOSITION AND USE THEREOF” (Qingdao Kingagroot Chemical Compound Co., Ltd., priority 2020, published 2023).

Assays:
Type in all cases: in vivo
Cyperus serotinus = experiment: Composition activity test, post-emergence foliage spray
Conyza Canadensis = experiment: as above
Cyperus difformis = experiment: as above
Descurainia sophia = experiment: Composition activity test, soil sealing treatment
Method: (§1) are as follows, and the others were purchased from reagent companies. The technical materials were all dissolved in acetone and diluted with an aqueous solution containing 0.1% emulsifier Tween-80. The dilution is performed as required.
(§2) Weeds are cultivated in a controllable sunlight greenhouse at 20 to 30° C., in natural light, and relative humidity of 57% to 72%. […] The test soil was placed quantitatively to 3/4 of the pots and then watered from the bottom of the pots to completely wet the soil to saturation. The test weed seeds were germinated, and uniformly and quantitatively sowed on the surface, then covered with 0.5-2 cm soil according to the seed size, and ready-for use 72 hours after sowing.
(§3) 3 pots with 30 weed seeds per pot were treated in one treatment with 4 replications per treatment.
(§4) The well-sowed weeds were evenly placed on a platform with an area of 0.5 m^2, and a solution of agents was sprayed on the soil thereof by the 3WP-2000-type walking spray tower at a dosage of 450 kg/ha and at a spray pressure of 0.3 MPa. After all the solution was sprayed, the valve was closed. After 30 seconds, the door of the spray tower was opened, and the nutritional bowl was taken out. Then the valve was opened, and the spray tube was cleaned by spraying 50 ml of water.
(§5) A method for investigating absolute number was employed, wherein whole seedlings of survival weeds were cut off with a blade along the soil surface, and the fresh weight of the weeds was weighed with an analytical balance. For dead weeds, the fresh weight thereof was zero.
(§6) The investigation was performed after 21 days of the treatment for only once.
(§7) An optimum ratio of the two active ingredients was determined by the actual control effect, characteristics of herbicides, and balance of a corresponding formula. Wherein, in the formula, X represented the fresh weight inhibition rate of the active ingredient A in a dosage of P, and Y represented the fresh weight inhibition rate of the active ingredient B in a dosage of Q. The statistical results were shown in the table 6.

Capsella bursa-pastoris = experiment: Composition activity test, post-emergence foliage spray
Echinochloa crusgalli = experiment: Composition activity test, soil sealing treatment; conditions: B 600 g a.i./ha
Method: as §1, §2, §3, §4, §5, §6, §7

Eleusine indica = experiment: Composition activity test, post-emergence foliage spray
Lolium multiflorum Lamk. = experiment: Composition activity test, soil sealing treatment; conditions: B 300 g a.i./ha
Method: as §1, §2, §3, §4, §5, §6, §7

Amaranthus retroflexus = experiment: Composition activity test, soil sealing treatment
Method: as §1, §2, §3, §4, §5, §6, §7

Eriochloa villosa = experiment: Composition activity test, post-emergence foliage spray
Leptochloa chinensis = experiment: Composition activity test, soil sealing treatment
Method: as §1, §2, §3, §4, §5, §6, §7

Compound: CP(=O)(O)CC[C@H](N)C(=O)O.N [glufosinate-P-ammonium]
- Control effect (%) of B applied alone (B) (Cyperus serotinus; B 150 g a.i./ha): 21.4%

Compound: c1cc[n+]2c(c1)-c1cccc[n+]1CC2 [diquat dibromide monohydrate]
- Control effect (%) of B applied alone (B) (Conyza Canadensis; B 300 g a.i./ha): 37.8%
- Control effect (%) of B applied alone (B) (Cyperus difformis; B 300 g a.i./ha): 18.4%

Compound: CCCOCCN(C(=O)CCl)c1c(CC)cccc1CC [pretilachlor]
- Control effect (%) of B applied alone (B) (Descurainia sophia; B 180 g a.i./ha): 51.2%

Compound: C[n+]1ccc(-c2cc[n+](C)cc2)cc1 [paraquat dichloride]
- Control effect (%) of B applied alone (B) (Conyza Canadensis; B 225 g a.i./ha): 48.4%
- Control effect (%) of B applied alone (B) (Cyperus difformis; B 150 g a.i./ha): 35.7%

Compound: Cn1nc(C(F)(F)F)c(CS(=O)(=O)C2=NOC(C)(C)C2)c1OC(F)F [pyroxasulfone]
- Control effect (%) of B applied alone (B) (Descurainia sophia; B 60 g a.i./ha): 57.6%

Compound: CNC1=C(c2cccc(C(F)(F)F)c2)C(=O)C(c2ccccc2)O1 (centres unmarked) [flurtamone]
- Control effect (%) of B applied alone (B) (Capsella bursa-pastoris; B 75 g a.i./ha): 56.7%

Compound: CCCN(CCC)C(=O)SCc1ccccc1 [prosulfocarb]
- Control effect (%) of B applied alone (B) (Echinochloa crusgalli): 32.6%

Compound: COP(=S)(OC)SCC(=O)N(c1ccc(Cl)cc1)C(C)(C)C [anilofos]
- Control effect (%) of B applied alone (B) (Descurainia sophia; B 75 g a.i./ha): 38.3%

Compound: O=C(Nc1ccc(F)cc1F)c1cccnc1Oc1cccc(C(F)(F)F)c1 [diflufenican]
- Control effect (%) of B applied alone (B) (Capsella bursa-pastoris; B 75 g a.i./ha): 33.1%

Compound: CC1(C)CON(Cc2ccccc2Cl)C1=O [clomazone]
- Control effect (%) of B applied alone (B) (Eleusine indica; B 150 g a.i./ha): 46.5%

Compound: CCc1cccc(C)c1N(C(=O)CCl)[C@@H](C)COC [s-metolachlor]
- Control effect (%) of B applied alone (B) (Descurainia sophia; B 150 g a.i./ha): 31.3%

Compound: Cc1ccccc1CO[C@@H]1C[C@@]2(C(C)C)CC[C@]1(C)O2 (racemic) [cinmethylin]
- Control effect (%) of B applied alone (B) (Lolium multiflorum Lamk.): 33.7%

Compound: Cc1cc(C)cc(OCC(C)Nc2nc(N)nc(C(C)(C)F)n2)c1 (centres unmarked) [triaziflam]
- Control effect (%) of B applied alone (B) (Amaranthus retroflexus; B 30 g a.i./ha): 42.1%

Compound: O=C(O)CNCP(=O)(O)O [glyphosate]
- Control effect (%) of B applied alone (B) (Conyza Canadensis; B 450 g a.i./ha): 51.2%

Compound: CC1(C)CON(Cc2ccc(Cl)cc2Cl)C1=O [bixlozone]
- Control effect (%) of B applied alone (B) (Eleusine indica; B 180 g a.i./ha): 36.7%

Compound: CCC/C(=N\OCC)C1=C(O)CC(CC(C)SCC)CC1=O (centres unmarked) [sethoxydim]
- Control effect (%) of B applied alone (B) (Eriochloa villosa; B 45 g a.i./ha): 36.7%

Compound: COC(=O)[C@@H](C)Oc1ccc(Oc2cnc3cc(Cl)ccc3n2)cc1 [quizalofop-P-methyl]
- Control effect (%) of B applied alone (B) (Eriochloa villosa; B 15 g a.i./ha): 41.7%

Compound: CCSC(C)CC1CC(=O)C(/C(CC)=N/OC/C=C/Cl)=C(O)C1 (centres unmarked) [clethodim]
- Control effect (%) of B applied alone (B) (Eriochloa villosa; B 30 g a.i./ha): 35.5%

Compound: CN(C(=O)COc1nc2ccccc2s1)c1ccccc1 [mefenacet]
- Control effect (%) of B applied alone (B) (Descurainia sophia; B 150 g a.i./ha): 46.4%

Compound: CCC(C)Nc1c([N+](=O)[O-])cc(C(C)(C)C)cc1[N+](=O)[O-] (centres unmarked) [butralin]
- Control effect (%) of B applied alone (B) (Leptochloa chinensis; B 180 g a.i./ha): 47.4%

Compound: CCCCOCN(C(=O)CCl)c1c(CC)cccc1CC [butachlor]
- Control effect (%) of B applied alone (B) (Descurainia sophia; B 225 g a.i./ha): 42.2%

Compound: CCC(CC)Nc1c([N+](=O)[O-])cc(C)c(C)c1[N+](=O)[O-] [pendimethalin]
- Control effect (%) of B applied alone (B) (Leptochloa chinensis; B 150 g a.i./ha): 43.2%

Compound: CC(C)N(C(=O)COc1nnc(C(F)(F)F)s1)c1ccc(F)cc1 [flufenacet]
- Control effect (%) of B applied alone (B) (Descurainia sophia; B 150 g a.i./ha): 45.6%

Compound: O=C(Nc1ccc(F)cc1)c1cccc(Oc2cccc(C(F)(F)F)c2)n1 [picolinafen]
- Control effect (%) of B applied alone (B) (Capsella bursa-pastoris; B 45 g a.i./ha): 44.4%

Compound: Cc1ccc2c(c1)[C@H](Nc1nc(N)nc(C(C)F)n1)[C@@H](C)C2 (some centres unmarked) [indaziflam]
- Control effect (%) of B applied alone (B) (Amaranthus retroflexus; B 15 g a.i./ha): 49.3%

Compound: CP(=O)(O)CCC(N)C(=O)O (centres unmarked) [glufosinate ammonium]
- Control effect (%) of B applied alone (B) (Conyza Canadensis; B 300 g a.i./ha): 57.8%
- Control effect (%) of B applied alone (B) (Cyperus serotinus; B 300 g a.i./ha): 23.1%
